How the values were obtained:
MV4-11 cells = assay: MV4-11 Cell Cytotoxicity Assay; type: cell-based, human; conditions: human, MV4-11 cells, CCK-8
Source text: % Inhibition=100−(D−B)/(S−B)*100%.
S: The absorbance of the maximum (cells with DMSO)
B: The absorbance of the minimum (medium with DMSO)

BRD4 (BD1+BD2) = molecular target: T1, BRD4 (BD1+BD2) (Homo sapiens, UniProt O60885); conditions: read-out: BRD4 Binding Potency
T1 construct: 1.8 μg/ml recombinant BRD4 (BD1+BD2 domains) protein

HSP90α = HSP90α (Homo sapiens, UniProt P07900); assay: HSP90α Binding Fluorescent Polarization (FP) Assay; conditions: competition with FITC-geldanamycin; read-out: HSP90 Binding Potency
In short: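 Competitive FP assay in which compound displaces FITC-geldanamycin from recombinant HSP90α (28 μg/ml before addition) in BSA-containing buffer. Compounds in 3-fold series from 40 μM to 2.0 nM (dilution-plate concentrations), tested in duplicate. Readings after 30, 60 and 120 min at 25 °C; background-subtracted mP fitted to four-parameter log[inhibitor]-response curve.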

For `Cc1sc2c(c1C)C(c1ccc(Cl)cc1)=N[C@@H](CC(=O)NCC(=O)NCCOCCOc1ccc(-n3c(O)nnc3-c3cc(C(C)C)c(O)cc3O)cc1)c1nnc(C)n1-2` [Compound 55, (S)-2-(4-(4-chlorophenyl)-2,3,9-trimethyl-6H-thieno[3,2-f][1,2,4]triazolo[4,3-a][1,4]diazepin-6-yl)-N-(2-((2-(2-(4-(3-(2,4-dihydroxy-5-isopropylphenyl)-5-hydroxy-4H-1,2,4-triazol-4-yl)phenoxy)ethoxy)ethyl)amino)-2-oxoethyl)acetamide], the IC50 at 72 h (MV4-11 cells) was 100 to 1000 nM, the IC50 (BRD4 (BD1+BD2)) was 100 to 1000 nM and the IC50 (HSP90α) was 100 to 1000 nM.

For `Cc1cc(C(=O)N2Cc3ccc(CN4CCN(C(=O)C[C@@H]5N=C(c6ccc(Cl)cc6)c6c(sc(C)c6C)-n6c(C)nnc65)CC4)cc3C2)c(O)cc1O` [Compound 144, (S)-2-(4-(4-chlorophenyl)-2,3,9-trimethyl-6H-thieno[3,2-f][1,2,4]triazolo[4,3-a][1,4]diazepin-6-yl)-1-(4-((2-(2,4-dihydroxy-5-methylbenzoyl)isoindolin-5-yl)methyl)piperazin-1-yl)ethan-1-one], the IC50 at 72 h (MV4-11 cells) was 100 to 1000 nM, the IC50 (BRD4 (BD1+BD2)) was 100 to 1000 nM and the IC50 (HSP90α) was 100 to 1000 nM.

Compound `Cc1sc2c(c1C)C(c1ccc(Cl)cc1)=N[C@@H](CC(=O)NCC1CCN(C(=O)C3CCN(Cc4ccc(-n5c(O)nnc5-c5cc(C(C)C)c(O)cc5O)cc4)CC3)C1)c1nnc(C)n1-2` (stereo partly drawn) [Compound 45, 2-((S)-4-(4-chlorophenyl)-2,3,9-trimethyl-6H-thieno[3,2-f][1,2,4]triazolo[4,3-a][1,4]diazepin-6-yl)-N-((1-(1-(4-(3-(2,4-dihydroxy-5-isopropylphenyl)-5-hydroxy-4H-1,2,4-triazol-4-yl)benzyl)piperidine-4-carbonyl)pyrrolidin-3-yl)methyl)acetamide, trifluoroacetic acid] has an IC50 at 72 h (MV4-11 cells) of under 100 nM, an IC50 (BRD4 (BD1+BD2)) of under 100 nM and an IC50 (HSP90α) of under 100 nM.

`Cc1sc2c(c1C)C(c1ccc(Cl)cc1)=N[C@@H](CC(=O)N1CCC(CN3CCC(Cc4ccc(-n5c(O)nnc5-c5cc(C(C)C)c(O)cc5O)cc4)CC3)CC1)c1nnc(C)n1-2` [Compound 94, (S)-2-(4-(4-chlorophenyl)-2,3,9-trimethyl-6H-thieno[3,2-f][1,2,4]triazolo[4,3-a][1,4]diazepin-6-yl)-1-(4-((4-(4-(3-(2,4-dihydroxy-5-isopropylphenyl)-5-hydroxy-4H-1,2,4-triazol-4-yl)benzyl)piperidin-1-yl)methyl)piperidin-1-yl)ethan-1-one, trifluoroacetic acid] was tested, and the IC50 at 72 h (MV4-11 cells) was under 100 nM, the IC50 (BRD4 (BD1+BD2)) was 100 to 1000 nM and the IC50 (HSP90α) was under 100 nM.

With `CCN(CC)CCNC(=O)c1nnc(-c2cc(C(C)C)c(O)cc2O)n1-c1ccc(CN2CCN(CC3CCN(C(=O)C[C@@H]4N=C(c5ccc(Cl)cc5)c5c(sc(C)c5C)-n5c(C)nnc54)CC3)CC2)cc1` [Compound 118, (S)-4-(4-((4-((1-(2-(4-(4-chlorophenyl)-2,3,9-trimethyl-6H-thieno[3,2-f][1,2,4]triazolo[4,3-a][1,4]diazepin-6-yl)acetyl)piperidin-4-yl)methyl)piperazin-1-yl)methyl)phenyl)-N-(2-(diethylamino)ethyl)-5-(2,4-dihydroxy-5-isopropylphenyl)-4H-1,2,4-triazole-3-carboxamide, trifluoroacetic acid] the IC50 at 72 h (MV4-11 cells) was under 100 nM, the IC50 (BRD4 (BD1+BD2)) was under 100 nM and the IC50 (HSP90α) was 100 to 1000 nM.

`CCc1cc(-c2nnc(O)n2-c2ccc(CN3CCC(C(=O)N4CCC(CNCC[C@@H]5N=C(c6ccc(Cl)cc6)c6c(sc(C)c6C)-n6c(C)nnc65)C4)CC3)cc2)c(O)cc1O` (stereo partly drawn) [Compound 67, (3-(((2-((6S)-4-(4-chlorophenyl)-2,3,9-trimethyl-6H-thieno[3,2-f][1,2,4]triazolo[4,3-a][1,4]diazepin-6-yl)ethyl)amino)methyl)pyrrolidin-1-yl)(1-(4-(3-(5-ethyl-2,4-dihydroxyphenyl)-5-hydroxy-4H-1,2,4-triazol-4-yl)benzyl)piperidin-4-yl)methanone, trifluoroacetic acid] was tested, and the IC50 at 72 h (MV4-11 cells) was 100 to 1000 nM, the IC50 (BRD4 (BD1+BD2)) was 100 to 1000 nM and the IC50 (HSP90α) was 100 to 1000 nM.

`Cc1sc2c(c1C)C(c1ccc(Cl)cc1)=N[C@@H](CCNCC1CCN(C(=O)C3CCN(Cc4ccc(-n5c(O)nnc5-c5cc(C(C)C)c(O)cc5O)cc4)CC3)C1)c1nnc(C)n1-2` (stereo partly drawn) [Compound 66, (3-(((2-((6S)-4-(4-chlorophenyl)-2,3,9-trimethyl-6H-thieno[3,2-f][1,2,4]triazolo[4,3-a][1,4]diazepin-6-yl)ethyl)amino)methyl)pyrrolidin-1-yl)(1-(4-(3-(2,4-dihydroxy-5-isopropylphenyl)-5-hydroxy-4H-1,2,4-triazol-4-yl)benzyl)piperidin-4-yl)methanone, trifluoroacetic acid] gave an IC50 at 72 h (MV4-11 cells) of 100 to 1000 nM, an IC50 (BRD4 (BD1+BD2)) of over 1000 nM and an IC50 (HSP90α) of 100 to 1000 nM.

Work on `CCc1cc(-c2nnc(O)n2-c2ccc(CC3CCN(CC4CCN(C(=O)C[C@@H]5N=C(c6ccc(Cl)cc6)c6c(sc(C)c6C)-n6c(C)nnc65)CC4)CC3)cc2)c(O)cc1O` [Compound 88, (S)-2-(4-(4-chlorophenyl)-2,3,9-trimethyl-6H-thieno[3,2-f][1,2,4]triazolo[4,3-a][1,4]diazepin-6-yl)-1-(4-((4-(4-(3-(5-ethyl-2,4-dihydroxyphenyl)-5-hydroxy-4H-1,2,4-triazol-4-yl)benzyl)piperidin-1-yl)methyl)piperidin-1-yl)ethan-1-one, formic acid] yielded an IC50 at 72 h (MV4-11 cells) of under 100 nM, an IC50 (BRD4 (BD1+BD2)) of 100 to 1000 nM and an IC50 (HSP90α) of 100 to 1000 nM.

Compound `Cc1sc2c(c1C)C(c1ccc(Cl)cc1)=N[C@@H](CC(=O)NCCOCCN1CCC(Cc3ccc(-n4c(O)nnc4-c4cc(C(C)C)c(O)cc4O)cc3)CC1)c1nnc(C)n1-2` [Compound 37, 2-((6S)-4-(4-chlorophenyl)-2,3,9-trimethyl-6H-thieno[3,2-f][1,2,4]triazolo[4,3-a][1,4]diazepin-6-yl)-N-(2-(2-(4-(4-(3-(2,4-dihydroxy-5-isopropylphenyl)-5-hydroxy-4H-1,2,4-triazol-4-yl)benzyl)piperidin-1-yl)ethoxy)ethyl)acetamide, trifluoroacetic acid] has an IC50 at 72 h (MV4-11 cells) of 100 to 1000 nM, an IC50 (BRD4 (BD1+BD2)) of under 100 nM and an IC50 (HSP90α) of under 100 nM.

Compound `Cc1sc2c(c1C)C(c1ccc(Cl)cc1)=N[C@@H](CC(=O)NCCOCCN1CCN(Cc3ccc(-n4c(O)nnc4-c4cc(C(C)C)c(O)cc4O)cc3)CC1)c1nnc(C)n1-2` [Compound 49, 2-((6S)-4-(4-chlorophenyl)-2,3,9-trimethyl-6H-thieno[3,2-f][1,2,4]triazolo[4,3-a][1,4]diazepin-6-yl)-N-(2-(2-(4-(4-(3-(2,4-dihydroxy-5-isopropylphenyl)-5-hydroxy-4H-1,2,4-triazol-4-yl)benzyl)piperazin-1-yl)ethoxy)ethyl)acetamide, trifluoroacetic acid, trifluoroacetic acid, trifluoroacetic acid, trifluoroacetic …] has an IC50 at 72 h (MV4-11 cells) of under 100 nM, an IC50 (BRD4 (BD1+BD2)) of 100 to 1000 nM and an IC50 (HSP90α) of under 100 nM.

`Cc1sc2c(c1C)C(c1ccc(Cl)cc1)=N[C@@H](CC(=O)NCC(=O)NCC1CN(C(=O)C3CCN(Cc4ccc(-n5c(O)nnc5-c5cc(C(C)C)c(O)cc5O)cc4)CC3)C1)c1nnc(C)n1-2` [Compound 60, 2-((6S)-4-(4-chlorophenyl)-2,3,9-trimethyl-6H-thieno[3,2-f][1,2,4]triazolo[4,3-a][1,4]diazepin-6-yl)-N-(2-(((1-(1-(4-(3-(2,4-dihydroxy-5-isopropylphenyl)-5-hydroxy-4H-1,2,4-triazol-4-yl)benzyl)piperidine-4-carbonyl)azetidin-3-yl)methyl)amino)-2-oxoethyl)acetamide, trifluoroacetic acid] gave an IC50 at 72 h (MV4-11 cells) of under 100 nM, an IC50 (BRD4 (BD1+BD2)) of 100 to 1000 nM and an IC50 (HSP90α) of 100 to 1000 nM.

With `CCNC(=O)c1nnc(-c2cc(CC)c(O)cc2O)n1-c1ccc(CC2CCN(CC3CCN(C(=O)C[C@@H]4N=C(c5ccc(Cl)cc5)c5c(sc(C)c5C)-n5c(C)nnc54)CC3)CC2)cc1` [Compound 87, (S)-4-(4-((1-((1-(2-(4-(4-chlorophenyl)-2,3,9-trimethyl-6H-thieno[3,2-f][1,2,4]triazolo[4,3-a][1,4]diazepin-6-yl)acetyl)piperidin-4-yl)methyl)piperidin-4-yl)methyl)phenyl)-N-ethyl-5-(5-ethyl-2,4-dihydroxyphenyl)-1H-1,2,414-triazole-3-carboxamide, trifluoroacetic acid] the IC50 at 72 h (MV4-11 cells) was under 100 nM, the IC50 (BRD4 (BD1+BD2)) was 100 to 1000 nM and the IC50 (HSP90α) was 100 to 1000 nM.

Compound `Cc1sc2c(c1C)C(c1ccc(Cl)cc1)=N[C@@H](CC(=O)NCC1CN(C(=O)C3CCN(Cc4ccc(-n5c(O)nnc5-c5cc(C(C)C)c(O)cc5O)cc4)CC3)C1)c1nnc(C)n1-2` [Compound 59, 2-((6S)-4-(4-chlorophenyl)-2,3,9-trimethyl-6H-thieno[3,2-f][1,2,4]triazolo[4,3-a][1,4]diazepin-6-yl)-N-((1-(1-(4-(3-(2,4-dihydroxy-5-isopropylphenyl)-5-hydroxy-4H-1,2,4-triazol-4-yl)benzyl)piperidine-4-carbonyl)azetidin-3-yl)methyl)acetamide, trifluoroacetic acid] has an IC50 at 72 h (MV4-11 cells) of under 100 nM, an IC50 (BRD4 (BD1+BD2)) of 100 to 1000 nM and an IC50 (HSP90α) of 100 to 1000 nM.

Work on `Cc1sc2c(c1C)C(c1ccc(Cl)cc1)=N[C@@H](CC(=O)NCCOc1cccc(CN(C)Cc3ccc(-n4c(O)nnc4-c4cc(C(C)C)c(O)cc4O)cc3)c1)c1nnc(C)n1-2` [Compound 50, 2-((6S)-4-(4-chlorophenyl)-2,3,9-trimethyl-6H-thieno[3,2-f][1,2,4]triazolo[4,3-a][1,4]diazepin-6-yl)-N-(2-(3-(((4-(3-(2,4-dihydroxy-5-isopropylphenyl)-5-hydroxy-4H-1,2,4-triazol-4-yl)benzyl)(methyl)amino)methyl)phenoxy)ethyl)acetamide, trifluoroacetic acid, trifluoroacetic acid, trifluoroacetic acid, trifluoroacetic …] yielded an IC50 at 72 h (MV4-11 cells) of under 100 nM, an IC50 (BRD4 (BD1+BD2)) of over 1000 nM and an IC50 (HSP90α) of 100 to 1000 nM.

From patent US20220168427A1 (Ranok Therapeutics (Hangzhou) Co. Ltd., priority 2019, published 2022)
